Patent US12109272B2, “Intermittent dosing of glucocorticoid receptor modulators for the treatment of ovarian and other cancers” (Corcept Therapeutics Incorporated, priority 2021, dated 2024)

How the values were obtained:
Format in all cases: in vivo, human
[1] = Phase 2 study: safety and tolerability (adverse events); conditions: relacorilant (intermittent or continuous) + nab-paclitaxel compared to nab-paclitaxel monotherapy; data as of Mar. 22, 2021
Protocol: Independent comparisons for the intermittent versus (vs.) comparator study arms and the continuous vs. comparator arms were performed. The primary endpoint of the study was progression-free survival as determined by the Response Evaluation Criteria in Solid Tumors (“RECIST”) version 1.1 guidelines (available via the World Wide Web at the following URL: ctep.cancer.gov/protocolDevelopment/docs/recist_guideline.pdf). Secondary endpoints included objective response rate, duration of response, overall survival, and safety of the combined administration of nab-paclitaxel and relacorilant. All efficacy objectives and corresponding endpoints listed below, assessment for response and disease progression were assessed according to RECIST v1.1.
Relacorilant treatment was safe, for both the intermittent and continuous groups, and was well tolerated by the patients. […] Safety and tolerability of the three treatment regimens is illustrated in FIG. 8 (data as of Mar. 22, 2021). There were fewer serious (grade ≥3) peripheral neuropathies in the intermittent group than the comparator group. […]

[2] = Phase 2 study: exposures (AUC, Cmax) of relacorilant and nab-paclitaxel; conditions: patients
Protocol: The exposures and peak concentrations of both nab-paclitaxel and of relacorilant were measured.

GR-inducible genes = assay: Separate healthy volunteer study: genes induced in whole blood by prednisone; conditions: single dose, healthy volunteers

| variability of exposures ([2]; all groups, AUC and Cmax) | SMILES | safety and tolerability [1] | exposures (AUC and Cmax) versus safety endpoints, presence or absence of the adverse events [2] | number of genes induced (GR-inducible genes) |
| --- | --- | --- | --- | --- |
| large variability | Cn1cc(S(=O)(=O)N2CCC3=Cc4c(cnn4-c4ccc(F)cc4)C[C@]3(C(=O)c3cc(C(F)(F)F)ccn3)C2)cn1 [relacorilant, (R)-(1-(4-fluorophenyl)-6-((1-methyl-1H-pyrazol-4-yl)sulfonyl)-4,4a,5,6,7,8-hexahydro-1H-pyrazolo[3,4-g]isoquinolin-4a-yl)(4-(trifluoromethyl)pyridin-2-yl)methanone] | safe | largely overlapping exposures | – |
| – | C[C@]12C=CC(=O)C=C1CC[C@@H]1[C@@H]2C(=O)C[C@@]2(C)[C@H]1CC[C@]2(O)C(=O)CO [prednisone] | – | – | 239 |
